From patent publication US10238670B2, “9-aminomethyl minocycline compounds and methods of use thereof in urinary tract infection (UTI) treatment” (Paratek Pharmaceuticals, Inc., priority 2016, dated 2019)

Tests used:
[1] = 14C-Compound 1 excretion and kidney/blood distribution in rats; format: in vivo, rat; details: for dose excreted in the urine: IV 5 mg/kg
Experimental: In rats, based on ^14C-Compound 1 dosed intravenously, approximately 30% of the dose (5 mg/kg) was excreted in the urine, with 25% excreted in the first 24 hours. The remainder of the dose was excreted into the feces. After IV dosing, the concentration of radioactivity in the kidney (cortex: 12,700 ng/g; medulla: 11,500 ng/g; pelvis: 11,300 ng/g) exceeded the blood concentration (1,570 ng/ml) 5 minutes post dose and at 24 hrs post dose (blood: 57.6 ng/ml; kidney cortex 318 ng/g; kidney medulla: 167 ng/g; kidney pelvis: 161 ng/g).

baseline pathogen = test: Phase 1b study, per-pathogen microbiological response at PTE (urine culture); format: in vivo, human
Experimental: At screening and at all study visits (i.e., screening, daily while on treatment, and at EOT and PTE visits) a microbiologic evaluation of the infection under study was performed. A clean-catch midstream urine sample was collected and immediately sent to the local microbiology laboratory for microscopic examination and culture. Quantitative urine culture by appropriate methods was performed using a calibrated loop that would identify bacteria at a lower limit of 1×10^3 CFU/mL. In general, bacteria identified at 1×10^5 colony forming units (CFU)/mL or greater were considered a bacterial pathogen (probability of true pathogen was greater than probability of contamination). In addition, if the same bacteria was isolated in the blood and in the urine at any CFU count it was considered a pathogen. Culture results were to include identification of all pathogens to the level of genus and species. In vitro antimicrobial susceptibility testing of the isolates to antimicrobial drugs that may be used to treat UTIs was performed locally using a standard method chosen by the laboratory. The microbiological outcome was determined programmatically based on the local and Central Laboratory microbiological analyses. For an isolate to be considered a pathogen at screening, it must presented in the urine sample at ≥10^5 CFU/mL or the pathogen should be isolated from both the blood and urine at any CFU count. Microbiological outcome was defined as: • Eradication: […] The pathogens isolated at baseline were presented by genus and species by treatment group. The number and percentage of subjects with a by-subject and by-pathogen eradication, persistence and indeterminate microbiologic response were presented. A listing of all baseline and post-baseline isolates was provided.

[2] = test system: human transporters and cytochrome P-450; details: cited from earlier work
[3] = Enterococcus faecalis, IV_PO300
[4] = Overall Gram Negative Pathogens, IV_PO300
[5] = Overall Gram Negative Pathogens, PO300
[6] = Overall Gram Negative Pathogens, PO450
[7] = Overall Gram Positive Pathogens, IV_PO300
[8] = Overall Gram Positive Pathogens, PO300
[9] = Overall Gram Positive Pathogens, PO450
[10] = Staphylococcus saprophyticus, PO450
[11] = Streptococcus agalactiae - (Group B), PO300

For `CN(C)c1cc(CNCC(C)(C)C)c(O)c2c1C[C@H]1C[C@H]3[C@H](N(C)C)C(O)=C(C(N)=O)C(=O)[C@@]3(O)C(O)=C1C2=O` [Compound 1, 9-[(2,2-dimethyl-propylamino)-methyl]-minocycline], the “dose excreted in the urine” value ([1]; first 24 hours) was 25%, the “dose excreted in the urine” value ([1]; total) was “approximately 30%” and the “concentration of radioactivity, blood” value ([1]; IV, 5 minutes post dose) was 1,570 ng/ml. For the same compound, the “concentration of radioactivity, kidney cortex” value ([1]; IV, 5 minutes post dose) was 12,700 ng/g, the “concentration of radioactivity, kidney medulla” value ([1]; IV, 5 minutes post dose) was 11,500 ng/g and the “concentration of radioactivity, kidney cortex” value ([1]; IV, 24 hrs post dose) was 318 ng/g. For the same compound, the “concentration of radioactivity, kidney medulla” value ([1]; IV, 24 hrs post dose) was 167 ng/g, the “concentration of radioactivity, kidney pelvis” value ([1]; IV, 24 hrs post dose) was 161 ng/g and the Eradication (baseline pathogen; Aerococcus urinae, PO450) was 1 (100.0) n (%). The Indeterminate (baseline pathogen; Aerococcus urinae, PO450) was 0 (0.0) n (%), the Persistence (baseline pathogen; Aerococcus urinae, PO450) was 0 (0.0) n (%) and the Eradication (baseline pathogen; [3]) was 1 (100.0) n (%). For the same compound, the Indeterminate (baseline pathogen; [3]) was 0 (0.0) n (%), the Persistence (baseline pathogen; [3]) was 0 (0.0) n (%) and the Eradication (baseline pathogen; Escherichia coli, IV_PO300) was 3 (100.0) n (%). For the same compound, the Indeterminate (baseline pathogen; Escherichia coli, IV_PO300) was 0 (0.0) n (%), the Persistence (baseline pathogen; Escherichia coli, IV_PO300) was 0 (0.0) n (%) and the Eradication (baseline pathogen; Escherichia coli, PO300) was 2 (66.7) n (%). The Indeterminate (baseline pathogen; Escherichia coli, PO300) was 0 (0.0) n (%), the Persistence (baseline pathogen; Escherichia coli, PO300) was 1 (33.3) n (%) and the Eradication (baseline pathogen; Escherichia coli, PO450) was 2 (50.0) n (%). The Indeterminate (baseline pathogen; Escherichia coli, PO450) was 0 (0.0) n (%), the Persistence (baseline pathogen; Escherichia coli, PO450) was 2 (50.0) n (%) and the Eradication (baseline pathogen; Klebsiella pneumoniae, PO300) was 1 (100.0) n (%). For the same compound, the Indeterminate (baseline pathogen; Klebsiella pneumoniae, PO300) was 0 (0.0) n (%), the Persistence (baseline pathogen; Klebsiella pneumoniae, PO300) was 0 (0.0) n (%) and the Eradication (baseline pathogen; Klebsiella pneumoniae, PO450) was 1 (50.0) n (%). For the same compound, the Indeterminate (baseline pathogen; Klebsiella pneumoniae, PO450) was 0 (0.0) n (%), the Persistence (baseline pathogen; Klebsiella pneumoniae, PO450) was 1 (50.0) n (%) and the Eradication (baseline pathogen; [4]) was 6 (100.0) n (%). The Indeterminate (baseline pathogen; [4]) was 0 (0.0) n (%), the Persistence (baseline pathogen; [4]) was 0 (0.0) n (%) and the Eradication (baseline pathogen; [5]) was 4 (100.0) n (%). The Indeterminate (baseline pathogen; [5]) was 0 (0.0) n (%), the Persistence (baseline pathogen; [5]) was 1 (25.0) n (%) and the Eradication (baseline pathogen; [6]) was 3 (50.0) n (%). The Indeterminate (baseline pathogen; [6]) was 0 (0.0) n (%), the Persistence (baseline pathogen; [6]) was 3 (50.0) n (%) and the Eradication (baseline pathogen; [7]) was 1 (100.0) n (%). For the same compound, the Indeterminate (baseline pathogen; [7]) was 0 (0.0) n (%), the Persistence (baseline pathogen; [7]) was 0 (0.0) n (%) and the Eradication (baseline pathogen; [8]) was 1 (100.0) n (%). The Indeterminate (baseline pathogen; [8]) was 0 (0.0) n (%), the Persistence (baseline pathogen; [8]) was 0 (0.0) n (%) and the Eradication (baseline pathogen; [9]) was 2 (100.0) n (%). For the same compound, the Indeterminate (baseline pathogen; [9]) was 0 (0.0) n (%), the Persistence (baseline pathogen; [9]) was 0 (0.0) n (%) and the Eradication (baseline pathogen; Proteus mirabilis, IV_PO300) was 3 (100.0) n (%). The Indeterminate (baseline pathogen; Proteus mirabilis, IV_PO300) was 0 (0.0) n (%), the Persistence (baseline pathogen; Proteus mirabilis, IV_PO300) was 0 (0.0) n (%) and the Eradication (baseline pathogen; Proteus mirabilis, PO300) was 1 (100.0) n (%). For the same compound, the Indeterminate (baseline pathogen; Proteus mirabilis, PO300) was 0 (0.0) n (%), the Persistence (baseline pathogen; Proteus mirabilis, PO300) was 0 (0.0) n (%) and the Eradication (baseline pathogen; [10]) was 1 (100.0) n (%). The Indeterminate (baseline pathogen; [10]) was 0 (0.0) n (%), the Persistence (baseline pathogen; [10]) was 0 (0.0) n (%) and the Eradication (baseline pathogen; [11]) was 1 (100.0) n (%). The Indeterminate (baseline pathogen; [11]) was 0 (0.0) n (%), the Persistence (baseline pathogen; [11]) was 0 (0.0) n (%) and the “potential for drug-drug interactions” value [2] was “low potential for drug-drug interactions”.
